Patent publication EP4389827A1, “AMINOGLYCOSIDE-LINKED PHOTOSENSITIZERS” (Centre National de la Recherche Scientifique, priority 2022, dated 2024)
Where two headings read alike, the source gives them in different places.

Legend:
[1] = tested on: A. baumannii DSM30011; experiment: Minimal inhibitory concentration (EUCAST), with or without 660 nm irradiation; assay type: cell-based, Acinetobacter baumannii; conditions: Acinetobacter baumannii, DSM30011, light or radiation study, 18 h
Procedure: (§1) Acinetobacter baumannii DSM30011, Bacillus subtilis 168, Pseudomonas aeruginosa PA14, P. aeruginosa PAO1, Staphylococcus aureus Mu50, S. aureus Newman and S. aureus USA300 were all grown in MHB-CA at 37°C with an agitation of 180 rpm. Candida albicans SC5314 was grown in yeast extract peptone dextrose broth at 35°C with an agitation of 180 rpm.
(§2) Minimal inhibitory concentrations (MICs) for selected bacteria were investigated according to the EUCAST guidelines. Serial dilutions of the compounds, photosensitizers and aminoglycosides were made in MHB-CA in 384-well plates. Stationary-phase cells were diluted in MHB-CA to have a final concentration of 5.5 × 10^5 CFU/mL. Samples were incubated in the dark for 20 minutes at 37°C and either irradiated at 660 nm for 30 minutes with a LED device or kept in the dark. Irradiated samples received a total of 168 mJ/mm^2. Plates were then incubated at 37°C for 18 hours and MICs were evaluated visually. Triplicates were done and the synergy, or fractional inhibitory concentration (FIC), was calculated according to Doern et al., 2014: FIC = (MIC of AB)/(MIC of A) + (MIC of AB)/(MIC of B) [formula]

[2] = tested on: B. subtilis 168; experiment: as above; assay type: cell-based, Bacillus subtilis; conditions: Bacillus subtilis, 168, light or radiation study, 18 h
Procedure: as §1, §2

[3] = tested on: C. albicans SC5314; experiment: Minimal inhibitory concentration, with or without 660 nm irradiation; assay type: cell-based; conditions: Candida albicans, SC5314, light or radiation study, 18 h
Procedure: as §1, §2

[4] = tested on: E. coli KanR; experiment: Minimal inhibitory concentration (EUCAST), with or without 660 nm irradiation; assay type: cell-based; conditions: Escherichia coli, light or radiation study, 18 h
Procedure: as §2

[5] = tested on: E. coli pET-29; experiment: as above; assay type: cell-based; conditions: Escherichia coli, PET29, light or radiation study, 18 h; aminoglycoside alone, irradiation state not given
Procedure: as §2

[6] = tested on: K. pneumoniae LM21; experiment: as above; assay type: cell-based; conditions: Klebsiella pneumoniae, LM21, light or radiation study, 18 h
Procedure: as §2

[7] = tested on: P. aeruginosa PA14; experiment: as above; assay type: cell-based, Pseudomonas aeruginosa; conditions: Pseudomonas aeruginosa, PA14, light or radiation study, 18 h
Procedure: as §1, §2

[8] = tested on: P. aeruginosa PAO1; experiment: as above; assay type: cell-based, Pseudomonas aeruginosa; conditions: Pseudomonas aeruginosa, PAO1, light or radiation study, 18 h
Procedure: as §1, §2

[9] = tested on: S. aureus Mu50; experiment: as above; assay type: cell-based; conditions: Staphylococcus aureus, MU50, light or radiation study, 18 h
Procedure: as §1, §2

[10] = tested on: S. aureus USA300; experiment: as above; assay type: cell-based; conditions: Staphylococcus aureus, USA300, light or radiation study, 18 h, aminoglycoside alone, irradiation state not given
Procedure: as §1, §2

[11] = tested on: S. aureus Newman; experiment: as above; assay type: cell-based, Staphylococcus aureus; conditions: Staphylococcus aureus, NEWMAN, light or radiation study, 18 h
Procedure: as §1, §2

[12] = tested on: S. aureus Mu50; experiment: Antibacterial photodynamic therapy on planktonic cells (CFU count); assay type: cell-based, Staphylococcus aureus; conditions: non-irradiated samples (Figure 3b)
Procedure: as §1
(§3) Cells were brought to stationary phase by incubating them in MHB-CA for at least 18 hours at 37°C with 180 rpm and diluted to an optical density of 1.0 just before the experiment. Cells were incubated for 20 minutes with either the compounds, photosensitizers alone, or aminoglycosides alone. Unless stated otherwise, a concentration of 10 µM was used for all experiments and samples were irradiated for 30 minutes at 660 nm with the Solis-660C lamp from ThorLabs, receiving a total of 5 J/mm^2. After illumination, cells were washed with phosphate-buffered saline (PBS) 1X, serially diluted and plated on Mueller-Hinton agar. The next day, colony forming units (CFUs) were counted.

[13] = tested on: S. aureus Newman; experiment: as above; assay type: cell-based, Staphylococcus aureus; conditions: non-irradiated samples (Figure 3d)
Procedure: as §1, §3

[14] = tested on: A. baumannii DSM30011; experiment: Antibacterial photodynamic therapy on biofilm cells; assay type: cell-based, Acinetobacter baumannii; conditions: - irradiation
From the text: (§4) Compounds Neo-Ce6 and Tobra-Ce6 caused strong drop in survival for biofilms of A. baumannii […], P. aeruginosa species and S. aureus Mu50. […] Tobra-Ce6 had its strongest effect on A. baumannii DSM30011 with more than 4 log10 CFU/mL drop in survival and a drop of 1.7 log10 CFU/mL in P. aeruginosa PA14. Table 2: aPDT results for biofilm cells expressed in drop in the log10 CFU/mL compared to controls.

[15] = tested on: P. aeruginosa PA14; experiment: as above; assay type: cell-based, Pseudomonas aeruginosa; conditions: - irradiation
From the text: as §4

[16] = tested on: P. aeruginosa PAO1; experiment: as above; assay type: cell-based, Pseudomonas aeruginosa; conditions: - irradiation
From the text: as §4

[17] = tested on: S. aureus Mu50; experiment: as above; assay type: cell-based, Staphylococcus aureus; conditions: - irradiation
From the text: as §4

[18] = tested on: S. aureus Newman; experiment: as above; assay type: cell-based, Staphylococcus aureus; conditions: - irradiation
From the text: as §4

[19] = tested on: S. aureus USA300; experiment: as above; assay type: cell-based, Staphylococcus aureus; conditions: - irradiation
From the text: as §4

[20] = tested on: S. aureus USA300 persister cells; experiment: Antibacterial photodynamic therapy on persister cells; assay type: cell-based, Staphylococcus aureus; conditions: persister cells (6 hours, 2 mM neomycin); aPDT at 10 µM, 5 J/mm^2 (Figure 6a)
Procedure: Persister plateau and AG concentration varied from one species to another. In S. aureus USA300, a stable plateau was obtained following 6 hours of incubation with 2 mM of neomycin. […] This control is crucial to make sure that a persister state has been achieved. […] As there are no significant differences between irradiated and non-irradiated samples, however, the production of singlet oxygen may not be the factor leading to cell death. In S. aureus Newman, cells were treated for 24 hours with 1 mM of neomycin. […] Although this synergy does exist, like in S. aureus USA300, there is no significant difference in survival for irradiated and non-irradiated samples, except for Ce6.

[21] = tested on: P. aeruginosa PAO1; experiment: Antibacterial photodynamic therapy on planktonic cells (CFU count); assay type: cell-based; conditions: Pseudomonas aeruginosa, PAO1, light or radiation study, aminoglycoside alone, Figure 5d (without irradiation), read-out: drop of survival
Procedure: as §1, §3

[22] = aminoglycoside alone, irradiation state not given, read-out: MIC

## NC[C@@H]1O[C@H](O[C@H]2[C@@H](O)[C@H](O[C@@H]3[C@@H](O)[C@H](N)C[C@H](N)[C@H]3O[C@H]3O[C@H](CN)[C@@H](O)[C@H](O)[C@H]3N)O[C@@H]2CO)[C@H](N)[C@@H](O)[C@@H]1O [Neomycin, neomycin]
[1]
  MIC: 8 µM
[2]
  MIC: 0.4 µM
[3]
  MIC: > 512 µM
[4]
  MIC: > 512 µM
[5]
  MIC: 128 to 256 µM
[6]
  MIC: 2 µM
[7]
  MIC: 4 µM
[8]
  MIC: 16 µM
[9]
  MIC: > 512 µM
[10]
  MIC: 4 µM
[11]
  MIC: 8 µM
[12]
  drop in CFUs (in words): does not lead to significantly less survival
[13]
  drop in CFUs (in words): does not lead to significantly less survival
[14]
  drop in the log10 CFU/mL compared to controls: 1.33 log10 CFU/mL
[15]
  drop in the log10 CFU/mL compared to controls: 0.01 log10 CFU/mL
[16]
  drop in the log10 CFU/mL compared to controls: 0.28 log10 CFU/mL
[17]
  drop in the log10 CFU/mL compared to controls: 0.18 log10 CFU/mL
[18]
  drop in the log10 CFU/mL compared to controls: -0.07 log10 CFU/mL
[19]
  drop in the log10 CFU/mL compared to controls: 0.16 log10 CFU/mL
[20]
  persister cell survival (in words): no significant drop in survival

## NC[C@H]1O[C@H](O[C@H]2[C@H](O)[C@@H](O[C@H]3O[C@H](CO)[C@@H](O)[C@H](N)[C@H]3O)[C@H](N)C[C@@H]2N)[C@H](N)C[C@@H]1O [Tobramycin, tobramycin]
[1]; [22]
  MIC: 4 to 8 µM
[7]; [22]
  MIC: 1 to 2 µM
[8]; [22]
  MIC: 0.5 to 1 µM
[9]; [22]
  MIC: > 512 µM
[10]
  MIC: 4 µM
[11]; [22]
  MIC: 4 µM
[21]
  log reduction at 10 µM: ~2.3
[14]
  drop in the log10 CFU/mL compared to controls: 0.93 log10 CFU/mL
[15]
  drop in the log10 CFU/mL compared to controls: 0.79 log10 CFU/mL
[16]
  drop in the log10 CFU/mL compared to controls: 0.39 log10 CFU/mL
[17]
  drop in the log10 CFU/mL compared to controls: -0.02 log10 CFU/mL
[18]
  drop in the log10 CFU/mL compared to controls: 0.25 log10 CFU/mL
[19]
  drop in the log10 CFU/mL compared to controls: 0.26 log10 CFU/mL
